Marks after values point to notes of the source that are not given here.
Key:
MCF-7 cells = experiment: MCF-7 cell proliferation assay with IGF-1 (MTS); format: cell-based, human; conditions: IGF-1 10 ng/mL, 24 hrs
Procedure: The human breast carcinoma cell line MCF-7 was obtained from ATCC (Manassas, VA) and grown in a sterile humidified environment at 37°C and 5% CO2: 95% air with complete DMEM media. The MCF-7 cells were plated in a 96 well plate at 30,000 cells/well at a confluency of 40%. The cells were serum starved for 24 h. At 22 h of serum starvation, the cells were treated with auraptene at 1 – 50 μM auraptene in DMSO (0.1%, v/v). The control cells received vehicle only (DMSO, 0.1% v/v). At 24 h of serum starvation, the cells were treated with IGF-1(10 ng/mL). After 24 hrs of IGF-1 treatment, the cells were treated with MTS [3-(4,5-dimethylthiazol-2-yl)-5-(3-carboxy methoxy phenyl)-2-(4-sulfophenyl)-2H-tetrazolium], for 2 h and the absorbance was measured at 490 nm.
Figure 2 Effects of auraptene on human breast carcinoma cells. (A) Effects of auraptene on MDA-MB-231 cell proliferation. Cells were serum starved for 5 h and then treated with 1–50 μM auraptene in 0.01% DMSO. Cell proliferation was assessed using the MTT reagent. Figures represent % vehicle control (means ± S.E.) # Replicates = 2 plates at 6 wells each for the treatment groups and 12 wells for the control group (* statistically different from control group, p < 0.05, One-way ANOVA, Tukey test). (B) Effects of auraptene on MCF-7 cell proliferation. Cells were serum starved for 24 h. […] Cell proliferation was assessed using the MTS reagent. […]

[1] = test system: N-methyl nitrosourea (MNU) induced mammary carcinogenesis; experiment: MNU-induced rat mammary carcinogenesis study, dietary auraptene; format: in vivo, female Sprague-Dawley rats; conditions: for Incidence (percentage of rats with tumor) / Multiplicity (average number of tumors per rat): means ± SE; for tumor burden: average tumor weight per rat / tumor burden: total tumor weights per rat: at necropsy
Procedure: A total of 128 female Sprague-Dawley rats (28 days of age), purchased from Harlan Teklad (Madison, WI), were used for this experiment. They were housed two per cage, in a temperature and humidity controlled AAALAC facility under 12 h light/dark cycle. All procedures were approved by LSUHSC Institutional Animal Care and Use Committee in accordance with NIH guidelines. They were fed test diets as described below and allowed access to food and water ad libitum.
Rats (28 days of age) were divided up randomly into groups of 24–26 each and were handled daily to get them accustomed to human touch. At 42 days of age the rats were shifted to the test diet. Control group and MNU only group were fed with Teklad (powdered diet) only. MNU/Auraptene 200 ppm group and MNU/Auraptene 500 ppm group received 200 ppm and 500 ppm of auraptene respectively, mixed in the diet for the duration of the study. The doses were selected from the pilot study conducted with a small number of animals. In addition to the 200 ppm dose of auraptene, which indicated the chemopreventive effect of auraptene, a higher dose of auraptene at 500 ppm was added to this study to see any increased chemopreventive effects. Auraptene has been administered in diet at 100 ppm and 500 ppm in other models of cancer. The diet was prepared once a week and stored in cold room. The food was replaced on Monday, Wednesday and Friday or as needed. […] At 50 days of age all the groups except the control group received intraperitoneal MNU injection (50 mg/kg bw in sterile acidified saline). The control group received vehicle only. The rats were palpated for tumors twice a week starting at 2 weeks after MNU administration. Any tumors felt during palpation were recorded by location. The rats were weighed once a week. A diet consumption analysis was done once to see if rats were consuming enough feed across all the groups and there was no significant difference in food consumption between the groups (data not shown). Any rats found to be moribund during the study were sacrificed within 24 h and necropsied. At 18 weeks after MNU administration, rats were euthanized by carbon dioxide asphyxiation and necropsied. The tumor location and weight of the tumor were marked in the necropsy sheet. Mammary fat pads and the tumors were collected in formalin, OCT compound and liquid nitrogen.
The rat body weight data was compared between groups by One-Way ANOVA followed by Tukey test. Groups were compared for the total number of tumors per rat by the nonparametric Kruskal-Wallis test. Time to tumor was estimated and compared among groups using survival curve analysis by the Log-rank test. The Cochran-Armitage test was used to test for trends in binomial response to different dose levels. Analysis was performed using StatXact (Cytel Software Corporation, Cambridge MA) and SPSS (SPSS Inc., Chicago IL). The cell proliferation assays and western blot data were analyzed by One-Way ANOVA followed by Tukey test.

[2] = 200 ppm in diet, 112 days (16 weeks) after MNU
[3] = 200 ppm in diet, 126 days (18 weeks) after MNU
[4] = 200 ppm in diet, 126 days (18 weeks) after MNU, listed as Aur.
[5] = 500 ppm in diet, 16 weeks, vs MNU only group
[6] = 500 ppm in diet, 112 days (16 weeks) after MNU
[7] = 500 ppm in diet, 126 days (18 weeks) after MNU
[8] = 500 ppm in diet, 126 days (18 weeks) after MNU, listed as Aur.

For `CC(C)=CCC/C(C)=C/COc1ccc2ccc(=O)oc2c1` [auraptene], the “suppression of MCF-7 cell proliferation” value (MCF-7 cells; 20 μM auraptene) was 26%, the “suppression of MCF-7 cell proliferation” value (MCF-7 cells; 50 μM auraptene) was 49% and the “Median time to tumor” value ([1]; 200 ppm in diet) was 91 days. For the same compound, the “first palpable tumor after MNU injection” value ([1]; 200 ppm in diet) was 38 days, the “Incidence (percentage of rats with tumor)” value [1, 2] was 76.9 ± 8.4% and the “Multiplicity (average number of tumors per rat)” value [1, 2] was 1.69 ± 0.27. The “Incidence (percentage of rats with tumor)” value [1, 3] was 81%, the “Multiplicity (average number of tumors per rat)” value [1, 3] was 2.08 and the “Incidence (percentage of rats with tumor)” value [1, 4] was 80.7 ± 7.8%. For the same compound, the “Multiplicity (average number of tumors per rat)” value [1, 4] was 2.08 ± 0.33, the “tumor burden: average tumor weight per rat” value ([1]; 200 ppm in diet) was 2.94 ± 0.79 grams and the “tumor burden: total tumor weights per rat” value ([1]; 200 ppm in diet) was 6.52 ± 1.49 grams. The “delay of median time to tumor” value ([1]; 200 ppm in diet, compared to MNU group) was 11 days, the “Median time to tumor” value ([1]; 500 ppm in diet) was 119 days and the “first palpable tumor after MNU injection” value ([1]; 500 ppm in diet) was 49 days. For the same compound, the “inhibition of tumor multiplicity” value [1, 5] was 37%, the “suppression of tumor incidence” value [1, 5] was 46% and the “Incidence (percentage of rats with tumor)” value [1, 6] was 45.8 ± 10.4^b %. The “Multiplicity (average number of tumors per rat)” value [1, 6] was 1.21 ± 0.35^c, the “Incidence (percentage of rats with tumor)” value [1, 7] was 67% and the “Multiplicity (average number of tumors per rat)” value [1, 7] was 2.0. The “Incidence (percentage of rats with tumor)” value [1, 8] was 66.7 ± 9.8%, the “Multiplicity (average number of tumors per rat)” value [1, 8] was 2.00 ± 0.43 and the “tumor burden: average tumor weight per rat” value ([1]; 500 ppm in diet) was 1.79 ± 0.54 grams. The “tumor burden: total tumor weights per rat” value ([1]; 500 ppm in diet) was 6.50 ± 2.10 grams, the “delay of median time to tumor” value ([1]; 500 ppm in diet, compared to MNU only group) was 39 days and the “total number of tumors in group” value ([1]; 500 ppm in diet, end of study, MNU only group had 65) was 48 tumors. The “Median time to tumor” value ([1]; 500 ppm in diet, listed as Aur.) was 119^d days.

Reference: article PMC2724550, “Citrus auraptene suppresses cyclin D1 and significantly delays N-methyl nitrosourea induced mammary carcinogenesis in female Sprague-Dawley rats” (BMC Cancer, 2009)
